Laboratory results: PMC9030254, “Target Hopping from Protein Kinases to PXR: Identification of Small-Molecule Protein Kinase Inhibitors as Selective Modulators of Pregnane X Receptor from TüKIC Library” (Cells, 2022)

Assays:
Experiment in all cases: Kinase profiling
Assay type in all cases: biochemical
JAK3 = molecular target: T1, JAK3 (Homo sapiens, UniProt P52333)
T1 construct: purchased ProQinase (Freiburg, Germany)
T1 sequence (P52333 1-1124): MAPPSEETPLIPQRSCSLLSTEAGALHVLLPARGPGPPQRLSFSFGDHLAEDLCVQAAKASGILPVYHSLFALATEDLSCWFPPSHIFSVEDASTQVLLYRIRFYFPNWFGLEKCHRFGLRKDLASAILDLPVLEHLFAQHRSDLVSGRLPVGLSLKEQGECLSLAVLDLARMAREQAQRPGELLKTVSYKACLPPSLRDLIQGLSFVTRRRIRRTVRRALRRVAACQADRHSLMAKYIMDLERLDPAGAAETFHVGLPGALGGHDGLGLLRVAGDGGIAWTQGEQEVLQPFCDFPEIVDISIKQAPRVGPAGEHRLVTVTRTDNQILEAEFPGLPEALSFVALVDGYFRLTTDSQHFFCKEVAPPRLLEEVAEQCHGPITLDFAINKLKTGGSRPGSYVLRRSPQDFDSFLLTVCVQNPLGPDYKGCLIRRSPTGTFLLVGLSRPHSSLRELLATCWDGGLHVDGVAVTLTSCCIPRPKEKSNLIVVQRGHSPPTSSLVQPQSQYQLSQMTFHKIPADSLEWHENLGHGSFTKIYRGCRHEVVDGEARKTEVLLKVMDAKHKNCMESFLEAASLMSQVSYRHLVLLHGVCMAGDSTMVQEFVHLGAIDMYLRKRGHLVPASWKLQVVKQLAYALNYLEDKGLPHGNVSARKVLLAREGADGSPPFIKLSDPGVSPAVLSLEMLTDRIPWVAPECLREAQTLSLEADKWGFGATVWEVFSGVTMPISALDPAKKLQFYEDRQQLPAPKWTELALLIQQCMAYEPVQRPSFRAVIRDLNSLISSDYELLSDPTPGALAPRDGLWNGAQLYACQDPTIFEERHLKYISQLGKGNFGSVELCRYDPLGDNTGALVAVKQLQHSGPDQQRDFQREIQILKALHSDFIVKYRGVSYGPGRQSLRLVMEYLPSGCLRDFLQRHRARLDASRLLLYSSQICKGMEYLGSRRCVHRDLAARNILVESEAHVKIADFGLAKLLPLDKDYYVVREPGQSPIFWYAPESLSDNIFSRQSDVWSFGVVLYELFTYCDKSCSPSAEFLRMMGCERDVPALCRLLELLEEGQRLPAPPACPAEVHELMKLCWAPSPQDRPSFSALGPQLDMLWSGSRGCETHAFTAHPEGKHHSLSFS
Method: (§1) The analysis was performed by ProQinase (Freiburg, Germany).

TAOK2 = molecular target: T2, TAOK2 (Homo sapiens, UniProt Q9UL54)
T2 construct: purchased ProQinase (Freiburg, Germany)
T2 sequence (Q9UL54 1-1235): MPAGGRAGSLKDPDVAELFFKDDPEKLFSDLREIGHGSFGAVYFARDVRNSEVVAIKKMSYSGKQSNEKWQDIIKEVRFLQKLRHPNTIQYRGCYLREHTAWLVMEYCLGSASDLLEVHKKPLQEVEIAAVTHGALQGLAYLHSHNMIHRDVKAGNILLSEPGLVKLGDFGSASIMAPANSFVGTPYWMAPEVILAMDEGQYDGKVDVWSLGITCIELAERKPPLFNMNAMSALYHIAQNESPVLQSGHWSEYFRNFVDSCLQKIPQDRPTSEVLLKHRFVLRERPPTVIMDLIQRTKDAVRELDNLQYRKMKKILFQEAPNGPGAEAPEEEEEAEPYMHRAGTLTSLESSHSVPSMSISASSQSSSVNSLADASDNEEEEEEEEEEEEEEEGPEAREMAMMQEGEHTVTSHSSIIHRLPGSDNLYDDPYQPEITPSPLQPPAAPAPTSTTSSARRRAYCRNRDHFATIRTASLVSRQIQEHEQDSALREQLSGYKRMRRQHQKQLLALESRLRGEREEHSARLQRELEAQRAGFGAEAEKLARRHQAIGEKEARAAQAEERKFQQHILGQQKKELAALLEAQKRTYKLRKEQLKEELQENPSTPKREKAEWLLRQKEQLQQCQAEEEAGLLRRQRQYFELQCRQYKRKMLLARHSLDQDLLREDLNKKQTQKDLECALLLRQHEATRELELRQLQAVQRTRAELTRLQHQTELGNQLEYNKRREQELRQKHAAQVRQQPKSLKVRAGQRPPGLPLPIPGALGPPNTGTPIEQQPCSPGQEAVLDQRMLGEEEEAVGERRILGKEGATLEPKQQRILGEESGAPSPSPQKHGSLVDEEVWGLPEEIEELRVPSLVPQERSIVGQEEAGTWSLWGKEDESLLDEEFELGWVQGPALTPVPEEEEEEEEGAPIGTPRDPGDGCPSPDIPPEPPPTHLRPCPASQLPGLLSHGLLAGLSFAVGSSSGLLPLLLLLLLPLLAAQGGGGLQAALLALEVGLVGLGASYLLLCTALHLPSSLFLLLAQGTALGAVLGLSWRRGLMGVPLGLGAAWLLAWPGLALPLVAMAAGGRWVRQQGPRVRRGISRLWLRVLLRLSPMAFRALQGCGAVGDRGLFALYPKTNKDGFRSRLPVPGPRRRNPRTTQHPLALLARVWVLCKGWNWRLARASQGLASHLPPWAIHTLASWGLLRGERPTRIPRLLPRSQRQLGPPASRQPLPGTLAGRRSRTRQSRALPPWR
Method: as §1

EGFR = molecular target: T3, EGFR (Homo sapiens, UniProt P00533)
T3 construct: purchased ProQinase (Freiburg, Germany)
T3 sequence (P00533 25-1210): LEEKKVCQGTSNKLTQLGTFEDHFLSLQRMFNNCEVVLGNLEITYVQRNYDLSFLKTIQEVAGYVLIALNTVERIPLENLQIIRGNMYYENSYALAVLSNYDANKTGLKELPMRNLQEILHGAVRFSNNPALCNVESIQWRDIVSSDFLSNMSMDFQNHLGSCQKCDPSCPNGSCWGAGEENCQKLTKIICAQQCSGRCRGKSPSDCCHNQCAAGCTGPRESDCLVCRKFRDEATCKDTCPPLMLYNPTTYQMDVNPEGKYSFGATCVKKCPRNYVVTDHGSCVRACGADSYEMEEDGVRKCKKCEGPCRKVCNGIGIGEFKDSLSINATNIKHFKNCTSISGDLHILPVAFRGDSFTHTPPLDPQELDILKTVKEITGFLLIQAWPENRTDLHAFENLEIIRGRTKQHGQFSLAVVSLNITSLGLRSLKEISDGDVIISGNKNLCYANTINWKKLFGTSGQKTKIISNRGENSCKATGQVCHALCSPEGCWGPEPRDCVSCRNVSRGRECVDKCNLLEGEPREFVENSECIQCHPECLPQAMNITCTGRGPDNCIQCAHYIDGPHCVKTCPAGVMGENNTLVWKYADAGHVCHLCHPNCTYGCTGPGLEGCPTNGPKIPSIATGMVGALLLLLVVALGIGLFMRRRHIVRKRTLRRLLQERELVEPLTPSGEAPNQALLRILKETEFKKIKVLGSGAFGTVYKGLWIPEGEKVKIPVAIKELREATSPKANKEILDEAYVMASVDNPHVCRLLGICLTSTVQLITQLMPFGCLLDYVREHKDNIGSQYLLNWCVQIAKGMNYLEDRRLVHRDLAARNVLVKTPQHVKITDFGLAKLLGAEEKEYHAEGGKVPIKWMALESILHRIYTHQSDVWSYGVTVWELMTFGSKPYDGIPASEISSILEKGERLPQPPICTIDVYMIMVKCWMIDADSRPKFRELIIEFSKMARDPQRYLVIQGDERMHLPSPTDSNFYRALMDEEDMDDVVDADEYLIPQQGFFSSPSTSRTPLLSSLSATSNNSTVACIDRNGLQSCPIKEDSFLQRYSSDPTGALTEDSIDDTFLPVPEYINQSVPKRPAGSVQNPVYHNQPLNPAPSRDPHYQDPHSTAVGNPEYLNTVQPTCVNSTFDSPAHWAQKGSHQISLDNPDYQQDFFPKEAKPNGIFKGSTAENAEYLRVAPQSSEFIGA
Method: as §1

## O=C(Nc1ccc(F)c(Nc2ccc3c(c2)CCCCC3=O)c1)c1cccc(F)c1 [Compound 109]
JAK3; 1.0E-05 M
  Residual activity: 79 % of control
JAK3; 1.0E-06 M
  Residual activity: 83 % of control
TAOK2; 1.0E-05 M
  Residual activity: 108 % of control
TAOK2; 1.0E-06 M
  Residual activity: 104 % of control
EGFR; 1.0E-05 M
  Residual activity: 93 % of control
EGFR; 1.0E-06 M
  Residual activity: 105 % of control

## O=C(Cc1ccccc1)Nc1ccc(F)c(Nc2ccc3c(c2)CCCCC3=O)c1 [Compound 100]
JAK3; 1.0E-05 M
  Residual activity: 75 % of control
JAK3; 1.0E-06 M
  Residual activity: 80 % of control
TAOK2; 1.0E-05 M
  Residual activity: 97 % of control
TAOK2; 1.0E-06 M
  Residual activity: 90 % of control
EGFR; 1.0E-05 M
  Residual activity: 99 % of control
EGFR; 1.0E-06 M
  Residual activity: 100 % of control
